# Test results: patent US20230041738A1, “1H-PYRAZOLO[4,3-d]PYRIMIDINE COMPOUNDS AS TOLL-LIKE RECEPTOR 7 (TLR7) AGONISTS” (BRISTOL-MYERS SQUIBB COMPANY, priority 2020, published 2023)
# Key:
# [1] = test system: CD69; test: Induction of CD69 in human whole blood (hWB); format: cell-based; conditions: 17 hrs at 37 C, CD69 surface staining, 100% set to 1 uM resiquimod, average where performed multiple times
# Experimental: The induction of Type I interferon (IFN) MX-1 genes and the B-cell activation marker CD69 are downstream events that occur upon activation of the TLR7 pathway. The following is a human whole blood assay that measures their induction in response to a TLR7 agonist.
# Heparinized human whole blood was harvested from human subjects and treated with test TLR7 agonist compounds at 1 mM. The blood was diluted with RPMI 1640 media and Echo was used to predot 10 nL per well giving a final concentration of 1 uM (10 nL in 10 uL of blood). After mixing on a shaker for 30 sec, the plates were covered and placed in a 37° C. chamber for o/n=17 hrs. Fixing/lysis buffer was prepared (5×→1× in H2O, warm at 37° C.; Cat #BD 558049) and kept the perm buffer (on ice) for later use.
# For surface markers staining (CD69): prepared surface Abs: 0.045 ul hCD14-FITC (ThermoFisher Cat #MHCD1401)+0.6 ul hCD19-ef450 (ThermoFisher Cat #48-0198-42)+1.5 ul hCD69-PE (cat #BD555531)+0.855 ul FACS buffer. Added 3 ul/well, spin1000 rpm for 1 min and mixed on shaker for 30 sec, put on ice for 30 mins. Stop stimulation after 30 min with 70 uL of prewarmed 1× fix/lysis buffer and use Feliex mate to resuspend (15 times, change tips for each plate) and incubate at 37C for 10 min.
# Centrifuge at 2000 rpm for 5 min aspirate with HCS plate washer, mix on shaker for 30 sec and then wash with 70 uL in dPBS and pelleted 2× s (2000 rpm for 5 min) and 50 ul wash in FACS buffer pelleted 1×s(2000 rpm for 5 min). Mix on shaker for 30 sec. For Intracellular markers staining (MX-1): Add 50 ul of BD Perm buffer III and mix on shaker for 30 sec. Incubate on ice for 30 min (in the dark). Wash with 50 uL of FACS buffer 2× (spin @2300 rpm×5 min after perm) followed by mixing on shaker for 30 sec. Resuspended in 20 ul of FACS buffer containing MX1 antibody ( )(4812)-Alexa 647: Novus Biologicals #NBP2-43704AF647) 20 ul FACS bf+0.8 ul hlgG+0.04 ul MX-1. Spin 1000 rpm for 1 min, mix on shaker for 30se and the samples were incubated at RT in the dark for 45 min followed by washing 2× FACS buffer (spin @2300 rpm×5 min after perm). Resuspend 20 ul (35 uL total per well) of FACS buffer and cover with foil and place in 4° C. to read the following day. Plates were read on iQuePlus. The results were loaded into toolset and IC50 curves are generated in curve master. The y-axis 100% is set to 1 uM of resiquimod.
# [2] = target: T1, human TLR7 (Homo sapiens, UniProt Q9NYK1); test: Human TLR7 agonist activity assay (hTLR7 reporter, HEK-Blue TLR7 cells, SEAP); format: cell-based; conditions: HEK-Blue TLR7 cells with SEAP reporter, 18 h treatment; average where assay performed multiple times
# T1 construct: host or cells: HEK-Blue TLR7 cells (engineered human embryonic kidney cells)
# T1 sequence (Q9NYK1 27-1049): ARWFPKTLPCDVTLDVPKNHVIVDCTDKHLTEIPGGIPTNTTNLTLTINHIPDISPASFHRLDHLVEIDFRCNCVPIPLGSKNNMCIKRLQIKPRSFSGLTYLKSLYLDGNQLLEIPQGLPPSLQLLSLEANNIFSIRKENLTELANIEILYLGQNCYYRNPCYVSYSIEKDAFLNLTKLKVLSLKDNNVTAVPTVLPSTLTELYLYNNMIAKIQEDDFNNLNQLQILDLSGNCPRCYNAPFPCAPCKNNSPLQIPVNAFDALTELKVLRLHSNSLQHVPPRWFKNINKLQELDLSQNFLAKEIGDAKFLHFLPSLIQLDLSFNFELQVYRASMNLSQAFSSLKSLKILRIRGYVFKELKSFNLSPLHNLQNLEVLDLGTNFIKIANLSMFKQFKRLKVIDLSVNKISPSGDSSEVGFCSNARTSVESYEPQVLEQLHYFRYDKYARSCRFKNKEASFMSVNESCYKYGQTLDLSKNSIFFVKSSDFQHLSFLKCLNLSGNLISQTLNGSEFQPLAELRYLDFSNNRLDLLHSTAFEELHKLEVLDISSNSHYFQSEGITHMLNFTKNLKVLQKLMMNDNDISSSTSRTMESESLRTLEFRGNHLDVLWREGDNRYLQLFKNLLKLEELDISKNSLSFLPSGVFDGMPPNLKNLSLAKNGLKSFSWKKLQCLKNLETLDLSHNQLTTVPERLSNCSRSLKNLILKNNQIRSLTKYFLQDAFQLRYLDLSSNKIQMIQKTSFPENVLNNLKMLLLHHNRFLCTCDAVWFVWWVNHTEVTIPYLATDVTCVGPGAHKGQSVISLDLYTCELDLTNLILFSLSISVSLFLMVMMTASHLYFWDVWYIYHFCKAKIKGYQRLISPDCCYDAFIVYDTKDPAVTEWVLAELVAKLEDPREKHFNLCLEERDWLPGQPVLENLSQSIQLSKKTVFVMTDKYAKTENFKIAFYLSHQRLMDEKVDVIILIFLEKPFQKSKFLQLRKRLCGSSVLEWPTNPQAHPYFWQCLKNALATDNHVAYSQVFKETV
# Experimental: This procedure describes a method for assaying human TLR7 (hTLR7) agonist activity of the compounds disclosed in this specification.
# HEK-Blue™ TLR7 cells were added to each well of a 384-well tissue-culture plate (15,000 cells per well) and incubated 16-18 h at 37° C., 5% CO2. Compounds (100 nl) were dispensed into wells containing the HEK-Blue™ TLR cells and the treated cells were incubated at 37° C., 5% CO2. After 18 h treatment ten microliters of freshly-prepared Quanti-Blue™ reagent (Invivogen) was added to each well, incubated for 30 min (37° C., 5% CO2) and SEAP levels measured using an Envision plate reader (OD=620 nm). The half maximal effective concentration values (EC50; compound concentration which induced a response halfway between the assay baseline and maximum) were calculated.
SMILES,EC50 [1] [nM],EC50 [2] [nM]
"COc1cc(CN2C[C@H]3CNC[C@H]3C2)ccc1Cn1ncc2nc(N)nc(NCC3CC(C4CC4)C3)c21 (stereo partly drawn) [Compound 113, 1-[(4-{[(3aR,6aS)-octahydro-pyrrolo[3,4-c]pyrrol-2-yl]methyl}-2-methoxyphenyl)methyl]-N7-[(3-cyclopropylcyclobutyl)methyl]-1H-pyrazolo[4,3-d]pyrimidine-5,7-diamine]",43.2,22.2
"COc1cc(CN2C[C@@H]3C[C@H]2CN3)ccc1Cn1ncc2nc(N)nc(NCc3cc(C)on3)c21 [Compound 106, 1-[(4-{[(1S,4S)-2,5-diazabicyclo-[2.2.1]heptan-2-yl]methyl}-2-methoxyphenyl)methyl]-N7-[(5-methyl-1,2-oxazol-3-yl)methyl]-1H-pyrazolo[4,3-d]pyrimidine-5,7-diamine]",73.6,234
"CCC[C@@H](CCO)Nc1nc(N)nc2cnn(Cc3ccc(CN[C@H]4C[C@H]5COC[C@H]54)cc3OC)c12 [Compound 108, (3S)-3-[(5-amino-1-{[2-methoxy-4-({[(1R,5R,6S)-3-oxabicyclo-[3.2.0]heptan-6-yl]amino}methyl)phenyl]methyl}-1H-pyrazolo-[4,3-d]pyrimidin-7-yl)amino]hexan-1-ol]",–,4.9
"CCCCNc1nc(N)nc2cnn(Cc3ccc(CN4C[C@H]5CCS(=O)(=O)[C@H]5C4)cc3OC)c12 [Compound 104, (3aR,6aR)-5-[(4-{[5-amino-7-(butyl-amino)-1H-pyrazolo[4,3-d]pyrimidin-1-yl]methyl}-3-methoxyphenyl)methyl]-hexahydro-2H-1λ6-thieno[2,3-c] pyrrole-1,1-dione]",–,197
"CCC[C@@H](CCO)Nc1nc(N)nc2cnn(Cc3ccc(CNC4[C@H]5COC[C@@H]45)cc3OC)c12 (stereo partly drawn) [Compound 107, (3S)-3-[(5-amino-1-{[2-methoxy-4-({[(1R,5S,6S)-3-oxabicyclo[3.1.0]-hexan-6-yl]amino}methyl)phenyl]-methyl}-1H-pyrazolo[4,3-d]pyrimidin-7-yl)amino]hexan-1-ol]",–,5.3
"CCC[C@@H](CCO)Nc1nc(N)nc2cnn(Cc3ccc(CN4C[C@@H]5OCC[C@@H]54)cc3OC)c12 [Compound 109, (3S)-3-({5-amino-1-[(2-methoxy-4-{[(1S,5S)-2-oxa-6-azabicyclo-[3.2.0]heptan-6-yl]methyl}phenyl)-methyl]-1H-pyrazolo[4,3-d]pyrimidin-7-yl}amino)hexan-1-ol]",–,2.2
"CCC[C@@H](CCO)Nc1nc(N)nc2cnn(Cc3ccc(C(=O)N4C[C@H]5CN(C)C[C@H]5C4)cc3OC(F)F)c12 [Compound 124, (3S)-3-{[1-({4-[(3aR,6aS)-5-methyl-octahydropyrrolo[3,4-c]pyrrole-2-carbonyl]-2-(difluoromethoxy)-phenyl}methyl)-5-amino-1H-pyra-zolo[4,3-d]pyrimidin-7-yl]amino}-hexan-1-ol]",–,82
"CCCCNc1nc(N)nc2cnn(Cc3ccc(CN4C[C@H]5CN(C)C[C@H]5C4)cc3OC)c12 [Compound 103, 1-[(4-{[(3aR,6aS)-5-methyl-octa-hydropyrrolo[3,4-c]pyrrol-2-yl]methyl}-2-methoxyphenyl)methyl]-N7-butyl-1H-pyrazolo[4,3-d]pyrimidine-5,7-diamine]",–,27.8
"CCCCNc1nc(N)nc2cnn(Cc3ccc(CN4C5CNCC4C5)cc3OC)c12 [Compound 102, N7-butyl-1-{[4-({3,6-diazabicyclo-[3.1.1]heptan-6-yl}methyl)-2-methoxyphenyl]methyl}-1H-pyrazolo-[4,3-d]pyrimidine-5,7-diamine]",–,89.6
"CCC[C@@H](CCO)Nc1nc(N)nc2cnn(Cc3ccc(CN4C[C@@H]5C[C@H]4CN5C(C)=O)cc3OC)c12 [Compound 101, 1-[(1S,4S)-5-({4-[(5-amino-7-{[(3S)-1-hydroxyhexan-3-yl]amino}-1H-pyrazolo[4,3-d]pyrimidin-1-yl)methyl]-3-methoxypheyl}-methyl)-2,5-diazabicyclo[2.2.1]-heptan-2-yl]ethan-1-one]",–,28.8

# Other lines, results leading:
EC50 [1] [nM],EC50 [2] [nM],SMILES
11.7,333,"CCC[C@@H](CCO)Nc1nc(N)nc2cnn(Cc3cnc(CN4C[C@@H]5C[C@H]4CN5C)cc3OC)c12 [Compound 131, (3S)-3-({5-amino-1-[(4-methoxy-6-{[(1S,4S)-5-methyl-2,5-diaza-bicyclo[2.2.1]heptan-2-yl]methyl}pyridin-3-yl)methyl]-1H-pyrazolo[4,3-d]pyrimidin-7-yl}amino)hexan-1-ol]"
13.2,576,"COc1cc(CN2C[C@H]3C[C@@H]2CN3C)ccc1Cn1ncc2nc(N)nc(N[C@H](CO)CC3CC3)c21 [Compound 137, (2S)-2-({5-amino-1-[(2-methoxy-4-{[(1R,4R)-5-methyl-2,5-diaza-bicyclo[2.2.1]heptan-2-yl]methyl}-phenyl]methyl]-1H-pyrazolo[4,3-d]pyrimidin-7-yl}amino)-3-cyclopropylpropan-1-ol]"
–,287,"COc1cc(CNC23CC(C2)C3)ccc1Cn1ncc2nc(N)nc(NCc3cc(C)on3)c21 [Compound 126, 1-({4-[({bicyclo[1.1.1]pentan-1-yl}amino)methyl]-2-methoxy-phenyl}methyl)-N7-[(5-methyl-1,2-oxazol-3-yl)methyl]-1H-pyra-zolo[4,3-d]pyrimidine-5,7-diamine]"
–,1230,"COc1cc(CN2C[C@@H]3C[C@H]2CN3CCO)ccc1Cn1nc(C)c2nc(N)nc(NCc3noc(C)n3)c21 [Compound 142, 2-[(1S,4S)-5-({4-[(5-amino-3-methyl-7-{[(5-methyl-1,2,4-oxadiazol-3-yl)methyl]amino}-1H-pyrazolo-[4,3-d]pyrimidin-1-yl)methyl]-3-methoxyphenyl}methyl)-2,5-diaza-bicyclo[2.2.1]heptan-2-yl]ethan-1-ol]"
–,301,"CCC[C@@H](CCO)Nc1nc(N)nc2cnn(Cc3ccc(C(=O)N4C[C@H]5C[C@@H]4CN5C)cc3OC(F)F)c12 [Compound 125, (3S)-3-[(5-amino-1-{[2-(difluoro-methoxy)-4-[(1R,4R)-5-methyl-2,5-diazabicyclo[2.2.1]heptane-2-carbonyl]phenyl]methyl}-1H-pyrazolo[4,3-d]pyrimidin-7-yl)amino]hexan-1-ol]"
